# Test results taken from US11389465B2, “Phosphorylated hexaacyl disaccharides (PHADs) for treating or preventing infections” (VANDERBILT UNIVERSITY, priority 2017, dated 2022).
# Tests used:
# [1] = Physiological response of non-burned sheep to MPLA infusion (FIG. 6); format: in vivo; settings: 1 hour monitoring
# Method: FIG. 6. Effects of MPLA infusion at the indicated doses over 10 minutes. Endpoints were recorded over a 1 hour period beginning at the end of the MPLA infusion.
# In further studies, the response of sheep to MPLA infusion was assessed (FIG. 6). Instrumented sheep received infusions of MPLA at doses of 5, 10 or 30 ug/kg in 10 ml of endotoxin-free lactated Ringer's solution over 10 minutes. Physiological parameters were monitored for 1 hour after MPLA infusion. […] These observations indicate that sheep have sensitivity to MPLA that is very similar to humans.
# P. aeruginosa = experiment: Pseudomonas pneumonia in burned sheep treated with MPLA (FIG. 14); format: in vivo
# Method: FIG. 14. MPLA treatment improves oxygenation and pulmonary mechanics and attenuates lactate production in sheep with Pseudomonas pneumonia. Studies were undertaken to assess oxygenation, pulmonary mechanics and hemodynamics in burned sheep treated with vehicle or MPLA prior to intrapulmonary challenge with P. aeruginosa. Sheep received a 20% total body surface area thermal burn followed 24 hours later by MPLA infusion. Intrapulmonary P. aeruginosa infection was induced at 24 hours after MPLA infusion. […] Hemodynamics and pulmonary function were measured for 24 hours after Pseudomonas infection.
# Pseudomonas aeruginosa = experiment: Duration of MPLA activity, intraperitoneal P. aeruginosa challenge (FIG. 4); format: in vivo, mice
# Method: FIG. 4. Duration of MPLA activity. Mice were treated with MPLA (20 μg IP) for 2 consecutive days and challenged with P. aeruginosa at the designated times after the last MPLA treatment. *<0.05 compared to vehicle control.
# It is important to know how long the effect of PHADs lasts to guide dosing frequency. Studies were performed with MPLA that show a duration of action of up to 10 days. Mice were treated with MPLA on 2 consecutive days (20 μg, IP) followed by intraperitoneal challenge with Pseudomonas aeruginosa (1×10^8) at 1, 7, 10 or 15 days after the last MPLA treatment (FIG. 4).
# [2] = system: Bone marrow derived macrophages (BMDMs); experiment: Metabolic reprogramming of bone marrow derived macrophages by MPLA (FIG. 11); format: cell-based; settings: 1 μg/mL MPLA for 24 hours
# Method: FIG. 11. MPLA drives persistent and dynamic metabolic reprogramming in macrophages. A) Bone marrow derived macrophages (BMDMs) were primed with 1 μg/mL MPLA for 24 hours, washed, and rested for 3 days (3 dp macrophages). These macrophages were compared to BMDMs stimulated with 1 μg/mL MPLA for 24 hours prior to assessment (24 hr macrophages) and untreated BMDMs (control). B) Glycolysis stress test of macrophages as determined by the Seahorse Xf^e96. C) Maximal extracellular acidification rate (ECAR) derived after the addition of oligomycin in the glycolysis stress test D) Glucose consumed from BMDMs over 24 hours, as determined by glucose concentration in cell-free medium subtracted by cell-containing medium. E) Lactate produced by BMDMs over 24 hours, as determined by lactate in cell-containing medium subtracted by cell free medium. F) Basal oxygen consumption rate (OCR) determined after the addition of glucose in the glycolysis stress test. G) Mitochondrial stress test of BMDMs as determined by the Seahorse Xfi96. H) Maximal oxidative rate derived after the addition of FCCP in the mitochondrial stress test. I) Intracellular ATP from BMDMs as determined by luminescence assay. Some BMDMs were exposed to 10 mM 2-DG or IlpM oligomycin for 3 hours prior to the assay. J) MitoTracker Green staining of BMDMs as determined by flow cytometry. K) Mitochondrial DNA (mtDNA)/nuclear DNA (nucDNA) as determined by qPCR. L) Succinate dehydrogenase (SDHA), citrate synthase (CS), and β-actin as determined by western blot. All bands shown derived from the same samples. […] Densitometry of SDHA and CS compared to β-actin derived from ImageJ shown. All experiments replicated at least twice. Data shown as mean+/−SEM. *, p<0.05 as determined by ANOVA with Tukey's post-hoc multiple comparison analysis.
# [3] = Physiological response of burned sheep to MPLA infusion (FIG. 7); format: in vivo
# Method: FIG. 7. MPLA infusion causes transient physiologic changes in burned sheep. Sheep received 20% total body surface area burn followed 24 hours later by vehicle or MPLA ([…]) infusion. Core body temperature, hemodynamics and pulmonary mechanics were measured for 2 hours after initiation of MPLA or vehicle infusions. […] A transient increase in heart rate (HR) and decrease in mean arterial blood pressure (MAP) were also observed in MPLA-treated sheep.
# Sheep were instrumented and received a 20% cutaneous burn. At 24 hours after the burn procedure, MPLA (5 ug/kg) was infused in 10 ml of endotoxin-free lactated Ringer's solution over 10 minutes. The sheep developed a transient 1° C. increase in core temperature at 1 hour after the start of infusion (FIG. 7).
# [4] = MPLA 5 ug/kg, 24 hours after 20% burn
# [5] = MPLA 2.5 micrograms/kg (FIG. 7 legend)
substance,measurement,setting,value
Monophosphoryl Lipid A [MPLA],"temperature, heart rate or mean pulmonary artery pressure",[1]; MPLA 5 ug/kg infused over 10 minutes,did not change
same,"temperature, heart rate and mean pulmonary artery pressure",[1]; MPLA 10 or 30 ug/kg infused over 10 minutes,all parameters were increased
same,"oxygenation (PaO2/FiO2 ratio, oxygenation index, shunt fraction)","P. aeruginosa; 24 hours after Pseudomonas infection, compared to controls",significantly better
same,survival,P. aeruginosa; 72 hour study period,All sheep survived
same,PaCO2,P. aeruginosa; MPLA vs vehicle,not significantly different between groups
same,decrease in plasma protein caused by pulmonary infection,"P. aeruginosa; MPLA vs vehicle, difference not significant",trended towards attenuation
same,plasma lactate concentration,P. aeruginosa; compared to controls,significantly lower
same,duration of action,Pseudomonas aeruginosa; MPLA 20 μg IP on 2 consecutive days,up to 10 days
same,bacterial burden,"Pseudomonas aeruginosa; challenge at 1, 7 and 10 days after last MPLA treatment, compared to vehicle",significantly lower bacterial burden
same,attenuation of hypothermia,Pseudomonas aeruginosa; challenge up to 15 days after last MPLA treatment,persisted until day 15
same,ATP production,[2],enhances ATP production
same,macrophage metabolism: glycolysis and oxygen consumption,[2],increased glycolysis and oxygen consumption
same,mitochondrial biogenesis,[2],enhances
same,"cardiac index, mean arterial pressure, central venous pressure, stroke volume, systemic vascular resistance, peak and pause airway pressures and PaO2/FiO2 ratio",[3]; [4],not significantly changed
same,heart rate and pulmonary artery pressure,[3]; [4],not significantly altered
same,increase in core temperature,"[3]; MPLA 5 ug/kg, 24 hours after 20% burn, transient, at 1 hour after start of infusion",1 °C
same,"cardiac index (CI), central venous pressure (CVP) and systemic vascular resistance (SVRI)",[3]; [5],minimally impacted
same,mean arterial blood pressure (MAP),[3]; [5],significantly decreased at 45 and 60 minutes
same,time of peak core body temperature after initiation of infusion,[3]; [5],75 min
same,core body temperature,"[3]; MPLA 2.5 micrograms/kg (FIG. 7 legend), from 45 minutes, still elevated at 2 hours",increased core body temperature
same,heart rate (HR),"[3]; MPLA 2.5 micrograms/kg (FIG. 7 legend), returned to baseline at 90 minutes",significantly increased at 30-75 minutes
same,safe dose,"[3]; burned sheep, infusion over 10 minutes",5 µg/kg
